{"source": "paper PMC6611794", "about": "“Development of a high-throughput strategy for discovery of potent analogues of antibiotic lysocin E” (Nature Communications, 2019)", "origin": "cited, not measured here", "tested_on": "S. aureus", "design": "method as in PMID 25485686", "settings": "S. aureus-infected mice; cited from earlier work", "description": "Lysocin E (1, Fig. 1a) was isolated from Lysobacter sp. as a new antibiotic and structurally determined to be a 37-membered depsipeptide (molecular weight = 1618 Da) with an N-methylated amide and ester linkages. The macrocyclic core of 12 residues contains four different non-proteinogenic D-amino acids (D-Arg-2/7, N-Me-D-Phe-5, D-Gln-9, D-Trp-10) and is appended with (R)-3-hydroxy-5-methylhexanamide. […] Screening of the additives ind ...", "data": [{"compound": "CN[C@H](CC(C)C)C(=O)N[C@H]1C(=O)N[C@@H](CC(N)=O)C(=O)N[C@H]2C(=O)N[C@H]3C(=O)N[C@H](C(=O)N[C@H](C(=O)O)c4cc(O)cc(O)c4-c4cc3ccc4O)[C@H](O)c3ccc(c(Cl)c3)Oc3cc2cc(c3O[C@@H]2O[C@H](CO)[C@@H](O)[C@H](O)[C@H]2O[C@H]2C[C@](C)(N)[C@H](O)[C@H](C)O2)Oc2ccc(cc2Cl)[C@H]1O", "note": "[vancomycin, reference compound]", "values": [{"measurement": "ED50", "value": 5.8, "unit": "mg/kg"}]}]}
